Measured values published in patent publication US20260258050A1, “IMMUNOMODULATOR” (HITGEN INC., priority 2023, published 2026).

Molecular target: T1, Human IL-17A (Homo sapiens, UniProt Q16552)
T1 sequence (Q16552 20-155 limits assumed): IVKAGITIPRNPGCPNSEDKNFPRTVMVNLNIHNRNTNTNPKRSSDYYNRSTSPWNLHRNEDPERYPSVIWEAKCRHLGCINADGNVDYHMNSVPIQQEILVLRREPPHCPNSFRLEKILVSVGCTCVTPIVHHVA
Assay: IL-17A enzyme-linked immunosorbent assay (competitive ELISA, IL-17A/IL-17Ra receptor-ligand binding)
Parameters: purchased Sino Biological Inc. 12047-H07B
Conditions: human IL-17A coated plate, human IL-17Ra, read-out: IC50, inhibitory activity of compounds on human IL-17A
Experimental: Experimental Example 1 IL-17A Enzyme-Linked Immunosorbent Assay (ELISA)
The inhibitory effects of human IL-17A inhibitors on receptor-ligand binding were quantitatively determined by a competitive enzyme-linked immunosorbent assay (ELISA). The ELISA was performed through the following steps.
Human IL-17A (Sino Biological Inc., Cat #12047-H07B) was diluted with coating buffer (50 mM phosphate-buffered saline (PBS), pH 7.4) to give an IL-17A concentration of 0.2 μg/ml. 100 μL of the resulting solution was added to each well of a 96-well plate, and the plate was incubated at 37° C. for 30 min. In a blank group, 100 100 μL of the coating buffer was added instead of the IL-17A solution.
The plate was washed four times with 10 mM phosphate-buffered saline containing 0.05% Tween-20 (PBST, pH 7.4). 200 μL of PBST was used per well for each wash. After the final wash, the plate was tapped dry on absorbent paper.
Fresh 5% (w/v) skim milk solution was prepared before the experiment. For example, 5 g of skim milk powder (Bio-Rad, 170-6404) was completely dissolved in 100 mL of 10 mM PBST. 200 μL of the 5% (w/v) skim milk solution was added to each well, and the plate was incubated on a shaker at 25° C. for 30 min.
(S4) Preparation of 100× to-be-Tested Compound Solutions
During step (S3), the to-be-tested compound solutions were prepared, respectively. Each powdered compound was dissolved in dimethyl sulfoxide (DMSO) to reach a storage concentration of 10 mM. The to-be-tested compound solutions were then serially diluted four-fold with DMSO to obtain nine storage concentrations ranging from […].
(S6) Pre-incubation of IL-17A with to-be-tested compound solutions
89 μL of PBST and 1 μL of each of the to-be-tested compound solutions were added to each well and mixed. The plate was pre-incubated at 25° C. for 10 min. In the blank group and the control group, 1 μL of DMSO was added instead of the to-be-tested compound solutions.
(S7) Incubation with Human Interleukin-17 Receptor a (IL-17Ra)
10 μL of 16 nM human IL-17Ra (Sino Biological Inc., Cat #10895-H03H) was added, followed by incubation on a shaker at 25° C. for 30 min. The receptor solution was prepared in 10 mM PBST.
(S9) Incubation with Horseradish Peroxidase-Conjugated Antibody
100 μL of mouse anti-Fc tag horseradish peroxidase (HRP)-conjugated antibody (Sino Biological Inc., Cat #10702-MM01T-H) was added to each well. The plate was incubated on a shaker at 25° C. for 30 min. The antibody was diluted with 5% (w/v) skim milk solution at 1:5,000 (v/v).
100 μL of 3,3′,5,5′-tetramethylbenzidine (TMB) substrate solution (BD, Cat #555214) was added to each well. Substrate A and substrate B were freshly mixed at a volume ratio of 1:1 before use. The plate was incubated in the dark at 25° C. for 5-15 min.
(S12) Termination and Detection
The color reaction was terminated by addition of 2.5 M hydrochloric acid (HCl). Absorbance was measured at 450 nm using a BMG PHERStar microplate reader.
(S13) Calculation of Half-Maximal Inhibitory Concentration (IC50)
The relative percent residual activity at each compound concentration was calculated according to Equation 1. The IC50 value of each test compound was then calculated in GraphPad 6 using the equation for log(inhibitor) versus normalized response with variable slope, as shown in Equation 2.
relative percent residual activity (%)=[(absorbance of sample−absorbance of blank group)/(absorbance of control group−absorbance of blank group)]%. Equation 1: […]
The compounds prepared in the above examples were tested for IL-17A inhibitory activity according to the above method.

Row | IC50 | SMILES
1 | ≤ 50 nM | Cc1[nH]nc2c1-c1cnc(NC(=O)[C@@H](NC(=O)c3ccnn3C(C)C)C(C3CC3)C3CC3)cc1CN(C(C)C(F)(F)F)C(=O)C2 (mixture of isomers) [compound 204]
2 | ≤ 50 nM | Cc1[nH]nc2c1-c1cnc(NC(=O)[C@@H](NC(=O)c3ccnn3C(C)C)C(C3CC3)C3CC3)cc1CN(C(C)C(F)(F)F)CC2 (mixture of isomers) [compound 205]
3 | ≤ 50 nM | Cc1[nH]nc2c1-c1cnc(NC(=O)C(NC(=O)c3conc3C(C)C)C(C3CC3)C3CC3)cc1CN(C(C)C(F)(F)F)C(=O)C2 (racemic) [compound 225]
4 | ≤ 50 nM | Cc1[nH]nc2c1-c1cnc(NC(=O)[C@@H](NC(=O)c3ccnn3CCCF)C(C3CC3)C3CC3)cc1CN(C(C)C(F)(F)F)C(=O)C2 (mixture of isomers) [compound 226]
5 | ≤ 50 nM | Cc1[nH]nc2c1-c1cc(F)c(NC(=O)[C@@H](NC(=O)c3conc3C(C)C)C(C3CC3)C3CC3)cc1CN(C(C)C(F)(F)F)C(=O)C2 (mixture of isomers) [compound 248]
6 | ≤ 50 nM | Cc1[nH]nc2c1-c1cc(F)c(NC(=O)[C@@H](NC(=O)c3ccnn3CCCF)C(C3CC3)C3CC3)cc1CN(C(C)C(F)(F)F)C(=O)C2 (mixture of isomers) [compound 249]
7 | ≤ 50 nM | Cc1[nH]nc2c1-c1cc(F)c(NC(=O)[C@@H](NC(=O)/C(F)=C\C(C)C)C(C3CC3)C3CC3)cc1CN(C(C)C(F)(F)F)C(=O)C2 (mixture of isomers) [compound 250]
8 | ≤ 50 nM | Cc1[nH]nc2c1-c1cc(F)c(NC(=O)[C@@H](NC(=O)/C(F)=C\C3CC3)C(C3CC3)C3CC3)cc1CN(C(C)C(F)(F)F)C(=O)C2 (mixture of isomers) [compound 251]
9 | ≤ 50 nM | CC(C)=C(F)C(=O)N[C@H](C(=O)Nc1cc2c(cc1F)-c1c(n[nH]c1C)CC(=O)N(C(C)C(F)(F)F)C2)C(C1CC1)C1CC1 (mixture of isomers) [compound 252]
10 | ≤ 50 nM | C=C(F)C(=O)N[C@H](C(=O)Nc1cc2c(cc1F)-c1c(n[nH]c1C)CC(=O)N(C(C)C(F)(F)F)C2)C(C1CC1)C1CC1 (mixture of isomers) [compound 253]
11 | ≤ 50 nM | Cc1[nH]nc2c1-c1cnc(NC(=O)[C@@H](NC(=O)/C(F)=C\C(C)C)C(C3CC3)C3CC3)cc1CN(C(C)C(F)(F)F)C(=O)C2 (mixture of isomers) [compound 254]
12 | ≤ 50 nM | Cc1[nH]nc2c1-c1cnc(NC(=O)[C@@H](NC(=O)/C(F)=C\C3CC3)C(C3CC3)C3CC3)cc1CN(C(C)C(F)(F)F)C(=O)C2 (mixture of isomers) [compound 255]
13 | ≤ 50 nM | CC(C)=C(F)C(=O)N[C@H](C(=O)Nc1cc2c(cn1)-c1c(n[nH]c1C)CC(=O)N(C(C)C(F)(F)F)C2)C(C1CC1)C1CC1 (mixture of isomers) [compound 256]
14 | ≤ 50 nM | C=C(F)C(=O)N[C@H](C(=O)Nc1cc2c(cn1)-c1c(n[nH]c1C)CC(=O)N(C(C)C(F)(F)F)C2)C(C1CC1)C1CC1 (mixture of isomers) [compound 257]
15 | ≤ 50 nM | CCn1nccc1C(=O)NC(C(=O)Nc1cc2c(cc1F)-c1c(n[nH]c1C)CCOC2)C1CCC(F)(F)CC1 (single isomer, unassigned) [compound 37a]
16 | ≤ 50 nM | Cc1[nH]nc2c1-c1cc(F)c(NC(=O)C(NC(=O)c3ccnn3C(C)C)C3CCC(F)(F)CC3)cc1COCC2 (single isomer, unassigned) [compound 38a]
17 | 50 to 150 nM | Cc1[nH]nc2c1-c1cc(F)c(NC(=O)[C@@H](NC(=O)c3ccnn3C(C)C[S+](C)[O-])C(C3CC3)C3CC3)cc1COCC2 (single isomer, unassigned) [compound 43a]
18 | 50 to 150 nM | Cc1[nH]nc2c1-c1cc(F)c(NC(=O)[C@@H](NC(=O)c3ccnn3C(C)C[S+](C)[O-])C(C3CC3)C3CC3)cc1COCC2 (single isomer, unassigned) [compound 43b]
19 | ≤ 50 nM | Cc1nonc1C(=O)N[C@H](C(=O)Nc1ccc2c(c1)COCCc1n[nH]c(C)c1-2)C(C1CC1)C1CC1 [compound 4]
20 | ≤ 50 nM | CCc1nonc1C(=O)N[C@H](C(=O)Nc1ccc2c(c1)COCCc1n[nH]c(C)c1-2)C(C1CC1)C1CC1 [compound 5]
21 | 50 to 150 nM | CCn1nccc1C(=O)N[C@H](C(=O)Nc1ccc2c(c1)CCOCc1n[nH]c(C)c1-2)C(C1CC1)C1CC1 [compound 14]
